Like-named read-outs stand apart in the source and are kept apart here.
What was measured:
[1] = Stereospecificity of inhibition of cell proliferation (D-isomer vs L-isomer); assay type: cell-based; details: 25 μM dose, preparation 95% enriched in D-isomer, p<0.001, FIG. 2
[2] = tested on: U87; test: MTT assay, human cancer cell line U87 (brain); assay type: cell-based; details: U87, 25 μM, 48 hour MTT assay; for inhibition at 25 µM: Homo sapiens, U-87 MG, read-out: Percent inhibition of human cancer cell line growth
[3] = tested on: A172; test: MTT assay, human cancer cell line A172 (brain); assay type: cell-based; details: A172, 25 μM, 48 hour MTT assay; for inhibition at 25 µM: Homo sapiens, A 172, read-out: Percent inhibition of human cancer cell line growth
[4] = tested on: C6 cells; test: Cell size and refractile bodies by phase microscopy, C6 cells; assay type: cell-based; details: for cells with one or more refractile bodies / mean number of refractile bodies per cell: C6 cells, after 48 hours
[5] = tested on: Calu6; test: MTT assay, human cancer cell line Calu6 (lung); assay type: cell-based; details: Calu6, 25 μM, 48 hour MTT assay; for inhibition at 25 µM: Homo sapiens, Calu-6, read-out: Percent inhibition of human cancer cell line growth
[6] = tested on: HS578T; test: MTT assay, human cancer cell line HS578T (breast); assay type: cell-based; details: 48 hour MTT assay; for inhibition at 25 µM: Homo sapiens, Hs-578T, read-out: Percent inhibition of human cancer cell line growth
[7] = tested on: U118; test: MTT assay, human cancer cell line U118 (brain); assay type: cell-based; details: U118, 25 μM, 48 hour MTT assay; for inhibition at 25 µM: Homo sapiens, read-out: Percent inhibition of human cancer cell line growth
[8] = tested on: PC3; test: MTT assay, human cancer cell line PC3 (prostate); assay type: cell-based; details: PC3, 25 μM, 48 hour MTT assay; for inhibition at 25 µM: Homo sapiens, PC-3, read-out: Percent inhibition of human cancer cell line growth
[9] = tested on: J82; test: MTT assay, human cancer cell line J82 (bladder); assay type: cell-based; details: J82, 25 μM, 48 hour MTT assay; for inhibition at 25 µM: Homo sapiens, read-out: Percent inhibition of human cancer cell line growth
[10] = tested on: HT1376; test: MTT assay, human cancer cell line HT1376 (bladder); assay type: cell-based; details: HT1376, 25 μM, 48 hour MTT assay; for inhibition at 25 µM: Homo sapiens, HT-1376, read-out: Percent inhibition of human cancer cell line growth
[11] = tested on: Du145; test: MTT assay, human cancer cell line Du145 (prostate); assay type: cell-based; details: Du145, 25 μM, 48 hour MTT assay; for inhibition at 25 µM: Homo sapiens, DU-145, read-out: Percent inhibition of human cancer cell line growth
[12] = tested on: C6 glioma cells; test: MTT cell proliferation assay, C6 glioma cells; assay type: cell-based; details: for IC50: MTT assay, FIG. 1, read-out: IC50, inhibition of C6 glioma cells; for inhibition at 25 µM: 48 h, two days, three different experiments
[13] = tested on: human cell lines derived from a variety of cancer types (brain, breast, bladder, lung, and prostate); test: MTT assay, all ten human cancer cell lines together; assay type: cell-based; details: for inhibition at 25 µM: read-out: inhibition levels (mean±SD)
[14] = tested on: U373; test: MTT assay, human cancer cell line U373 (brain); assay type: cell-based; details: U373, 25 μM, 48 hour MTT assay; for inhibition at 25 µM: Homo sapiens, U373 MG, read-out: Percent inhibition of human cancer cell line growth
[15] = tested on: human glioma cell line U87; test: In vivo subcutaneous U87 tumor model in nude mice; design: species or system male nu/nu BALBc mice
Protocol: In vivo subcutaneous model. 10^6 U87 cells were injected into the right […] of male nu/nu BALBc mice (Charles River). Two days after inoculation, the mice received either 0.1 mg/kg ajulemic acid in 0.05 ml of safflower oil, or 0.05 ml safflower oil by oral administration. Thereafter, identical dosings were performed on each Monday, Wednesday, and Friday. When visible tumors appeared, the size of the tumors were estimated by averaging the values of two roughly perpendicular diameters measurements. Visible tumors were measured on the days of drug administration.

[16] = tested on: W138 cells; test: Refractile bodies by phase microscopy, W138 cells; assay type: cell-based; details: same length of time and dosage
[17] = tested on: C6 glioma cells; test: Electron microscopy and trypan blue exclusion of treated cells; assay type: cell-based
[18] = tested on: C6 glioma cells; test: Co-incubation of C6 glioma cells with a specific CB1 antagonist; assay type: cell-based; details: 3.2 μM of a specific CB1 antagonist
[19] = tested on: C6 glioma cells; test: Flow cytometry/cell cycle analysis; assay type: cell-based; details: 25 μM
Protocol: Flow cytometry/cell cycle analysis. For flow cytometry, cells were grown in low serum (0.5%) for two days to synchronize cells in G0/G1, after which they were placed in high serum (10%) for two days. The cells were then labeled with propidium iodide and fixed in 4% paraformaldehyde. Cells were examined using a MoFlo Facs sorter for DNA content.

[20] = tested on: WI38 cells; test: Cell proliferation assay, normal fibroblast cell line WI38; assay type: cell-based, rat; details: WI-38, 48 h, two days, three different experiments
[21] = tested on: Protein kinase C (PKC); test: Protein kinase C (PKC) assay in C6 cells; assay type: cell-based; details: 25 μM
Protocol: Protein kinase C (PKC) assay. Cells were transferred into MEM media (0.5% serum) and cultured overnight. The next day, cells were treated with either DMSO or 25 μM ajulemic acid for the specified incubation time, after which the plates were trypsinized. 5×10^6 trypsinized cells were assayed for PKC activity using a kit (Calbiochem, cat. no. 53984).

[22] = tested on: C6 cells; test: Lipid incorporation assay (14C-arachidonic acid); assay type: cell-based; details: 25 μM, 48 hours
[23] = two days in 10% serum after synchronization
[24] = two days in 10% serum after synchronization, listed as AJA
[25] = 48 hours, mean over the ten human lines

In the case of CCCCCCC(C)(C)c1cc(O)c2c(c1)OC(C)(C)[C@@H]1CC=C(C(=O)O)C[C@@H]21 (single isomer, unassigned) [D-isomer of ajulemic acid], the “potency of D-isomer compared to L-isomer of ajulemic acid” value [1] is reported as “marked decrease in the potency”.
For CCCCCc1cc(O)c2c(c1)OC(C)(C)[C@@H]1CC=C(C(=O)O)C[C@@H]21 [THC-11-oic acid], the “Percent inhibition of human cancer cell line growth” value (from here on “Percent inhibition”) [2] was 5 ± 1%, the “Percent inhibition” value [3] was 61 ± 2% and the “refractile bodies noted (in words)” value ([4]; C6 glioma cells, 25 μM, 48 hours) was “no refractile bodies”. For the same compound, the “Percent inhibition” value [5] was 19 ± 5%, the “Percent inhibition” value ([6]; 25 μM) was 2 ± 1% and the “Percent inhibition” value [7] was 14 ± 3%. For the same compound, the “Percent inhibition” value [8] was 1 ± 1%, the “Percent inhibition” value [9] was 1 ± 1% and the “Percent inhibition” value [10] was 21 ± 12%. For the same compound, the “Percent inhibition” value [11] was 7 ± 3%, the IC50 [12] was 20 µM and the “inhibition levels (mean±SD)” value ([13]; 25 μM, 48 hours, mean over the ten human lines) was 13.1±18.5%. The “Percent inhibition” value [14] was 0%.
With CCCCCCC(C)(C)c1cc(O)c2c(c1)OC(C)(C)[C@@H]1CC=C(C(=O)O)C[C@@H]21 [ajulemic acid, 1′,1′-dimethylheptyl-Δ^8-THC-11-oic acid] the inhibition at 25 µM [2] was 54 ± 2%, the “appearance and size of tumors (in words)” value ([15]; 0.1 mg/kg thrice weekly, FIG. 4) was “delay in both the appearance and size of tumors” and the mean tumor diameter ([15]; day 25 post-inoculation, 0.1 mg/kg oral thrice weekly, n=5, p=0.015) was 3.8±8.5 mm. The “refractile bodies noted (in words)” value [16] was “no refractile bodies”, the inhibition at 25 µM [3] was 76 ± 1% and the “cells with one or more refractile bodies” value [4] was 83%. The “mean number of refractile bodies per cell” value [4] was 1.78±1.6 per cell, the cell size ([4]; after 48 hours of exposure) was “marked increase in cell size” and the “recovery upon drug removal” value [17] was “recover quickly upon drug removal”. The “state of treated cells under electron microscopy” value [17] was “neither apoptotic nor necrotic”, the “viability rate by trypan blue exclusion” value ([17]; treated cells) was > 95% and the inhibition at 25 µM [5] was 69 ± 3%. The inhibition at 25 µM [6] was 60 ± 2%, the inhibition at 25 µM [7] was 60 ± 2% and the “change of effect on co-incubation with CB1 antagonist (in words)” value [18] was “slight potentiation”. For the same compound, the inhibition at 25 µM [8] was 69 ± 2%, the inhibition at 25 µM [9] was 57 ± 3% and the “rate of apoptosis (sub-G0 cells)” value ([19]; two days) was “not increased”. For the same compound, the “G0/G1 (mean % ± SD)” value [19, 23] was 39.1 ± 1.3 %, the “G2/M (mean % ± SD)” value [19, 23] was 32.3% and the “S (mean % ± SD)” value [19, 23] was 13.0%. The “G2/M (mean % ± SD)” value [19, 24] was 32.3 ± 3.0 %, the “S (mean % ± SD)” value [19, 24] was 13.0 ± 2.3 % and the inhibition at 25 µM [10] was 60 ± 2%. For the same compound, the inhibition at 25 µM [11] was 74 ± 2%, the inhibition at 25 µM [20] was 44% and the “onset of PKC activity increase” value [21] was “increased within five minutes”. For the same compound, the “PKC activity versus control” value ([21]; for one hour) was “approximately two-fold above that of control”, the inhibition at 25 µM [12] was 65% and the IC50 ([12]; C6 glioma) was 55 µM. For the same compound, the “content of tri- and di-glyceride versus controls” value [22] was “over three-fold greater”, the “neutral lipids versus basal levels” value ([22]; p<0.05 vs control, FIG. 3) was “significant increase above basal levels” and the “effectiveness compared to THC” value ([13]; 25 μM, p<0.05, in six of the ten lines tested) was “significantly more effective”. It also gave an inhibition at 25 µM [13, 25] of 61.3 ± 12.1% and an inhibition at 25 µM [14] of 34 ± 1%.
With CCCCCc1cc(O)c2c(c1)OC(C)(C)[C@@H]1CCC(C)=C[C@@H]21 [Δ^9-THC, tetrahydrocannabinol] the inhibition at 25 µM [2] was 20 ± 5%, the inhibition at 25 µM [3] was 42 ± 5% and the “cells with one or more refractile bodies” value [4] was 27%. For the same compound, the “mean number of refractile bodies per cell” value [4] was 0.22±0.5 per cell, the inhibition at 25 µM [5] was 28 ± 5% and the inhibition at 25 µM [6] was 52 ± 5%. The inhibition at 25 µM [7] was 39 ± 5%, the “decrease in potency on co-incubation with CB1 antagonist” value [18] was 150% and the inhibition at 25 µM [8] was 72 ± 2%. The inhibition at 25 µM [9] was 63 ± 6%, the inhibition at 25 µM [10] was 23 ± 5% and the inhibition at 25 µM [11] was 55 ± 7%. For the same compound, the inhibition at 25 µM [20] was 66%, the inhibition at 25 µM [12] was 50% and the IC50 ([12]; C6 glioma) was 10 µM. The inhibition at 25 µM [13, 25] was 39.4 ± 22% and the inhibition at 25 µM [14] was 0%.
